From patent US11407738B2 (Achillion Pharmaceuticals, Inc., priority 2015, dated 2022)
pIC50: −log10 of the molar value.

Target: Human Factor D (Homo sapiens (Human), UniProt P00746)
Assay: Human Factor D assay
Format: biochemical
Details: Factor D inhibition, substrate Z-L-Lys-SBzl
Experimental: Human Factor D (purified from human serum, Complement Technology, Inc.) at 80 nM final concentration is incubated with test compound at various concentrations for 5 min at room temperature in 50 mM Tris, 1M NaCl, pH 7.5. A synthetic substrate Z-L-Lys-SBzl and DTNB (Ellman's reagent) are added to final concentrations of 100 μM each. […] IC50 values are calculated by nonlinear regression of complement Factor D reaction rates as a function of test compound concentration.

Sequence of Human Factor D (P00746 26-253): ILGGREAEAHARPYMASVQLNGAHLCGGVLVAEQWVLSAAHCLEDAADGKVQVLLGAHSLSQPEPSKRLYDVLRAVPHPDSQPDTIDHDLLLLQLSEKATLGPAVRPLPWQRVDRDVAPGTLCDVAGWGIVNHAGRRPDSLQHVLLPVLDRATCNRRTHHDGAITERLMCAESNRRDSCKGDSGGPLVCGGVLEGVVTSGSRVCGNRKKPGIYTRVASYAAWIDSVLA

SMILES	pIC50 (Table 4)	pIC50 (Table 3)
Cc1cccc(C[C@H](O)[C@@H]2C[C@@H](F)CN2C(=O)Cn2cc(C(N)=O)c3cc(-c4cnc(C)nc4)ccc32)n1 [Compound 559, 1-(2-((2S,4R)-4-Fluoro-2-((S)-1-hydroxy-2-(6-methylpyridin-2-yl)ethyl)pyrrolidin-1-yl)-2-oxoethyl)-5-(2-methylpyrimidin-5-yl)-1H-indole-3-carboxamide]	< 5.00	
CC(=O)c1nn(CC(=O)N2C[C@H](F)C[C@H]2C(=O)SCc2cccc(Cl)c2F)c2ccc(-c3cnc(C)nc3)cc12 [Compound 516, S-(3-Chloro-2-fluorobenzyl) (2S,4R)-1-(2-(3-acetyl-5-(2-methylpyrimidin-5-yl)-1H-indazol-1-yl)acetyl)-4-fluoropyrrolidine-2-carbothioate]		5.00 to 6.00
CC(=O)c1nn(CC(=O)N2C[C@H](F)C[C@H]2C(=O)Nc2cccc(-c3cc(F)ccc3S(C)(=O)=O)c2F)c2ccc(-c3cnc(C)nc3)cc12 [Compound 539, (2S,4R)-1-(2-(3-acetyl-5-(2-methylpyrimidin-5-yl)-1H-indazol-1-yl)acetyl)-N-(2,5′-difluoro-2′-(methylsulfonyl)-[1,1′-biphenyl]-3-yl)-4-fluoropyrrolidine-2-carboxamide]	> 6.00	
COCCN(C)CCN1CC(NC(=O)[C@@H]2C[C@@H](F)CN2C(=O)Cn2nc(C(C)=O)c3cc(-c4cnc(C)nc4)ccc32)CC1=O (stereo partly drawn) [Compound 533, (2S,4R)-1-(2-(3-acetyl-5-(2-methylpyrimidin-5-yl)-1H-indazol-1-yl)acetyl)-4-fluoro-N-(1-(2-((2-methoxyethyl)(meth-yl)amino)ethyl)-5-oxopyrrolidine-3-yl)pyrrolidine-2-carboxamide]	< 5.00	
CC(=O)c1nn(CC(=O)N2C[C@H](F)C[C@H]2C(=O)NCC#N)c2ccc(-c3cnc(C)nc3)cc12 [Compound 601]	> 6.00	
CC(=O)Cc1nn(CC(=O)N2C[C@H](F)C[C@H]2C(=O)Nc2cccc(Br)n2)c2ccc(-c3cnc(C)nc3)cc12 [Compound 522, (2S,4R)-N-(6-bromopyridin-2-yl)-4-fluoro-1-(2-(5-(2-methylpyrimidin-5-yl)-3-(2-oxopropyl)-1H-indazol-1-yl)acetyl)pyrrolidine-2-carboxamide]		> 6.00
CC(=O)c1nn(CC(=O)N2C[C@H](F)C[C@H]2CC(N)=O)c2ccc(-c3cnc(C)nc3)cc12 [Compound 575, 2-((2R,4R)-1-(2-(3-Acetyl-5-(2-methylpyrimidin-5-yl)-1H-indazol-1-yl)acetyl)-4-fluoropyrrolidin-2-yl)acetamide]	< 5.00	
COC(=O)Cc1ccccc1CNC(=O)Cn1nc(C(C)=O)c2cc(-c3cnc(C)nc3)ccc21 [Compound 537, methyl 2-(2-((2-(3-acetyl-5-(2-methylpyrimidin-5-yl)-1H-indazol-1-yl)acetamido)meth-yl)phenyl)acetate]	< 5.00	
CC(=O)c1nn(CC(=O)N2CCC[C@H](CNC(=O)c3cccc(Br)n3)C2)c2ccc(-c3cnc(C)nc3)cc12 [Compound 556, (R)—N-((1-(2-(3-Acetyl-5-(2-methylpyrimidin-5-yl)-1H-indazol-1-yl)acetyl)piperidin-3-yl)methyl)-6-bromopicolinamide]	< 5.00	
Cc1cccc(C[C@@H](O)[C@H]2C[C@@H](F)CN2C(=O)Cn2cc(C(N)=O)c3cc(-c4cnc5cc(C)nn5c4)ccc32)n1 [Compound 611, 1-(2-((2R,4R)-4-Fluoro-2-((R)-1-hydroxy-2-(6-methylpyridin-2-yl)ethyl)pyrrolidin-1-yl)-2-oxoethyl)-5-(2-methylpyrazolo [1,5-a]pyrimidin-6-yl)-1H-indole-3-carboxamide]	< 5.00	
CC(=O)c1nn(CC(=O)N2CCC[C@@H]2CC(=O)O)c2ccc(-c3cnc(C)nc3)cc12 [Compound 510, (R)-2-(1-(2-(3-acetyl-5-(2-methylpyrimidin-5-yl)-1H-indazol-1-yl)acetyl)pyrrolidin-2-yl)acetic acid]		< 5.00
CC(=O)c1nn(CC(=O)N2C[C@H](F)C[C@H]2C(=O)NC2CCN(C(=O)c3cc(Cl)c[nH]3)CC2)c2ccc(-c3cnc(C)nc3)cc12 [Compound 532, (2S,4R)-1-(2-(3-acetyl-5-(2-methylpyrimidin-5-yl)-1H-indazol-1-yl)acetyl)-N-(1-(4-chloro-1H-pyrrole-2-carbonyl)piperidin-4-yl)-4-fluoropyrrolidine-2-carboxamide]	> 6.00	
CO[C@@H]1CO[C@H]2[C@@H]1OC[C@H]2Oc1ncc(-c2ccc3c(c2)c(C(C)=O)cn3CC(=O)N2C[C@H](F)C[C@H]2C(=O)Nc2cccc(-c3ccccc3Cl)c2F)cn1 [Compound 503, (2S,4R)-1-(2-(3-Acetyl-5-(2-((3R,3aR,6R,6aR)-6-methoxyhexahydrofuro[3,2-b]furan-3-yloxy)pyrimidin-5-yl)-1H-indol-1-yl)acetyl)-N-(2′-chloro-2-fluorobiphenyl-3-yl)-4-fluoropyrrolidine-2-carboxamide]		> 6.00
CC(=O)c1nn(CC(=O)N2C[C@H]3C[C@H]3[C@H]2C(=O)Nc2ccn(CC(F)(F)F)n2)c2ccc(-c3cnc(C)nc3)cc12 [Compound 606, (1R,2S,5S)-3-(2-(3-acetyl-5-(2-methylpyrimidin-5-yl)-1H-indazol-1-yl)acetyl)-N-(1-(2,2,2-trifluoroethyl)-1H-pyrazol-3-yl)-3-azabicyclo[3.1.0]hex-ane-2-carboxamide]	> 6.00	
Cc1cccc(NC(=O)[C@@H]2CCC(F)CCN2C(=O)Cn2cc(C(N)=O)c3cc(-c4cccnc4)ccc32)n1 (stereo partly drawn) [Compound 588, 1-(2-((2S)-5-Fluoro-2-((6-methylpyridin-2-yl)carbamoyl)azepan-1-yl)-2-oxoethyl)-5-(pyridin-3-yl)-1H-indole-3-carboxamide]	< 5.00	
Cc1cccc(NC(=O)[C@@H]2CCC(F)CCN2C(=O)Cn2cc(C(N)=O)c3cc(-c4cnc5cc(C)nn5c4)ccc32)n1 (stereo partly drawn) [Compound 614, 1-(2-((2S)-5-Fluoro-2-((6-methylpyridin-2-yl)carbamoyl)azepan-1-yl)-2-oxoethyl)-5-(2-methylpyrazolo[1,5-a]pyrimidin-6-yl)-1H-indole-3-carboxamide]	< 5.00	
CC(=O)c1cn(CC(=O)N[C@H](C(=O)Nc2cccc(Br)n2)[C@@H](C)O)c2ccc(-c3cnc(C)nc3)cc12 [Compound 505, (2S,3R)-2-(2-(3-Acetyl-5-(2-methylpyrimidin-5-yl)-1H-indol-1-yl)acetamido)-N-(6-bromopyridin-2-yl)-3-hydroxybutanamide]		> 6.00
Cc1ncc(-c2ccc3c(c2)c(C(=O)NS(C)(=O)=O)nn3CC(=O)N2C[C@H](F)C[C@H]2C(=O)Nc2cccc(Br)n2)cn1 [Compound 585, 1-(2-((2S,4R)-2-((6-bromopyridin-2-yl)carbamoyl)-4-fluoropyrrolidin-1-yl)-2-oxoethyl)-5-(2-methylpyrimidin-5-yl)-N-(methylsulfonyl)-1H-indazole-3-carboxamide]	< 5.00	
CC(=O)c1nn(CC(=O)N2C[C@H](F)C[C@H]2CNCc2cccc(Cl)c2F)c2ccc(-c3cnc(C)nc3)cc12 [Compound 630, 2-(3-Acetyl-5-(2-methylpyrimidin-5-yl)-1H-indazol-1-yl)-1-((2S,4R)-2-(((3-chloro-2-fluorobenzyl)amino)methyl)-4-fluoropyrrolidin-1-yl)ethan-1-one]	5.00 to 6.00	
